The text below walks through data of patent publication US20240123079A1 (Seagen Inc., priority 2021, published 2024).

One may read the EC50 as the concentration needed to bring the measured effect to its halfway point.

Molecules are shown by their SMILES.

The subject of one experiment is THP1-Dual™ reporter cells. Kind of experiment: THP1-Dual cell reporter assay (IRF-Lucia luciferase reporter). The experiment is classed as cell-based, human. To be noted: ADCs: drug linker conjugated to a targeted mAb, 48 h. In short, it runs like this: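 THP1-Dual monocytic cells (~100,000/well) were exposed to compound for 24 h (ADCs 48 h). Secreted IRF-driven Lucia luciferase in the supernatant was quantified by QUANTI-Luc luminescence.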
In general terms: A reporter such as luciferase makes a cellular process visible.
As to `CCn1nc(C)cc1C(=O)Nc1nc2cc(C(N)=O)cc(OC)c2n1C/C=C/Cn1c(NC(=O)c2ccnnc2)nc2cc(C(N)=O)cc(OCCCN(C)C(=O)CCN3C(=O)C=CC3=O)c21` [Compound 98], the “EC50 (ng/mL)” value is given as >10,000 ng/mL.

As for `CCn1nc(C)cc1C(=O)Nc1nc2cc(C(N)=O)cc(OC)c2n1C/C=C/Cn1c(NC(=O)c2cc(C)nn2C)nc2cc(C(N)=O)cc(OCCCN(C)C(=O)CCN3C(=O)C=CC3=O)c21` [Compound 105], the “EC50” value is 0.0525 µg/mL.

On to `CCn1nc(C)cc1C(=O)Nc1nc2cc(S(N)(=O)=O)ccc2n1C/C=C/Cn1c(NC(=O)c2cc(C)nn2C)nc2cc(C(N)=O)cc(OCCC3CN(C(=O)CCN4C(=O)C=CC4=O)C3)c21` [Compound 145, (E)-2-(1,3-dimethyl-1H-pyrazole-5-carboxamido)-7-(2-(1-(3-(2,5-dioxo-2,5-dihydro-1H-pyrrol-1-yl)propanoyl)azetidin-3-yl)ethoxy)-1-(4-(2-(1-ethyl-3-methyl-1H-pyrazole-5-carboxamido)-5-sulfamoyl-1H-benzo[d]imidazol-1-yl)but-2-en-1-yl)-1H-benzo[d]imidazole-5-carboxamide], for which the “EC50 (ng/mL)” value is >10,000 ng/mL.

In the case of `CCc1oc(C)cc1C(=O)Nc1nc2cc(C(N)=O)cc(OCCCN(C)C(=O)CCN3C(=O)C=CC3=O)c2n1C/C=C/Cn1c(NC(=O)c2cc(C)nn2CC)nc2cc(C(N)=O)cc(OC)c21` [Compound 106], the “EC50 (ng/mL)” value was >10,000 ng/mL.

With `CCn1nc(C)cc1C(=O)Nc1nc2cc(S(N)(=O)=O)ccc2n1C/C=C/Cn1c(NC(=O)c2cc(C)nn2C)nc2cc(C(N)=O)cc(OCCCOC3CN(C(=O)CCN4C(=O)C=CC4=O)C3)c21` [Compound 147, (E)-2-(1,3-dimethyl-1H-pyrazole-5-carboxamido)-7-(3-((1-(3-(2,5-dioxo-2,5-dihydro-1H-pyrrol-1-yl)propanoyl)azetidin-3-yl)oxy)propoxy)-1-(4-(2-(1-ethyl-3-methyl-1H-pyrazole-5-carboxamido)-5-sulfamoyl-1H-benzo[d]imidazol-1-yl)but-2-en-1-yl)-1H-benzo[d]imidazole-5-carboxamide], the “EC50 (ng/mL)” value is >10,000 ng/mL.

Take `CCn1nc(C)cc1C(=O)Nc1nc2cc(C(=O)OC)cc(OC)c2n1C/C=C/Cn1c(NC(=O)c2cc(C)nn2CC)nc2cc(C(=O)OC)cc(OCCCN(C)C(=O)CCN3C(=O)C=CC3=O)c21` [Compound 66, methyl (E)-7-(3-(3-(2,5-dioxo-2,5-dihydro-1H-pyrrol-1-yl)-N-methylpropanamido)propoxy)-2-(1-ethyl-3-methyl-1H-pyrazole-5-carboxamido)-1-(4-(2-(1-ethyl-3-methyl-1H-pyrazole-5-carboxamido)-7-methoxy-5-(methoxycarbonyl)-1H-benzo[d]imidazol-1-yl)but-2-en-1-yl)-1H-benzo[d]imidazole-5-carboxylate]: the “EC50 (ng/mL)” value is >10,000 ng/mL.

Take `CCn1nc(C)cc1C(=O)Nc1nc2cc(C(N)=O)cc(OC)c2n1C/C=C/Cn1c(NC(=O)c2cc(C)nn2CC)nc2cc(C(N)=O)cc(OCCCN(C)C(=O)[C@H](Cc3ccc(OC)cc3)NC(=O)CCN3C(=O)C=CC3=O)c21` [Compound 124]: the “EC50” value was found to be 0.0091 µg/mL.

The experiment is the same for the next values; noted with them: Homo sapiens, THP1-Dual; free compounds, 24 h, Lucia reporter signal; read-out: EC50.
As to `CCn1nc(C)cc1C(=O)Nc1nc2cc(C(N)=O)cc(OC)c2n1C/C=C/Cn1c(NC(=O)c2ncccn2)nc2cc(C(N)=O)cc(OCCCNC)c21` [Compound 84], the half-maximal effective concentration (EC50) was > 10000 nM.

Turning to `CCn1nc(C)cc1C(=O)Nc1nc2cc(C(=O)OC)cc(OC)c2n1C/C=C/Cn1c(NC(=O)c2cc(C)nn2CC)nc2cc(C(=O)OC)cc(OCCCNC)c21` [Compound 66b], the concentration giving a half-maximal response (EC50) turned out to be 1160 nM.

As to `CCn1nc(C)cc1C(=O)Nc1nc2cc(C(N)=O)cc(OC)c2n1C/C=C/Cn1c(NC(=O)c2cc(C)nn2CC)nc2cc(C(N)=O)cc(OCCCN(C)C(=O)[C@@H](N)Cc3ccc(OC)cc3)c21` [Compound 118], the concentration for a half-maximal effect (EC50) came out at 23.6 nM.

In the case of `CCn1nc(C(F)(F)F)cc1C(=O)Nc1nc2cc(C(N)=O)cc(O)c2n1C/C=C/Cn1c(NC(=O)c2cc(C(F)(F)F)nn2CC)nc2cc(C(N)=O)cc(OC)c21` [Compound 52], the EC50 is > 10000 nM.

`COc1cc(C(N)=O)cc2nc(NC(=O)Cn3nc(C)cc3C)n(C/C=C/Cn3c(NC(=O)Cn4nc(C)cc4C)nc4cc(C(N)=O)cc(O)c43)c12` [Compound 48]: the EC50 is > 10000 nM.

Consider `CCn1nc(C)cc1C(=O)Nc1nc2cc(C(N)=O)ccc2n1C/C=C/Cn1c(NC(=O)c2cc(C)nn2CC)nc2cc(C(N)=O)cc(OCCCN(C)C(=O)CCCCCN3C(=O)CC(SC[C@H](N)C(=O)O)C3=O)c21` (stereo partly drawn) [Compound 132, S-(1-(6-((3-((5-carbamoyl-1-((E)-4-(5-carbamoyl-2-(1-ethyl-3-methyl-1H-pyrazole-5-carboxamido)-1H-benzo[d]imidazol-1-yl)but-2-en-1-yl)-2-(1-ethyl-3-methyl-1H-pyrazole-5-carboxamido)-1H-benzo[d]imidazol-7-yl)oxy)propyl)(methyl)amino)-6-oxohexyl)-2,5-dioxopyrrolidin-3-yl)-L-cysteine], for which the EC50 stood at 37.4 nM.

Regarding `CCn1nc(C)cc1C(=O)Nc1nc2cc(C(N)=O)cc(OC)c2n1C/C=C/Cn1c(NC(=O)c2cc(C)nn2CC)nc2cc(C(N)=O)cc(OCCCN(C)C(=O)[C@@H](N)CC(C)C)c21` [Compound 114], the EC50 came to 9.4 nM.

For `COc1cc(C(N)=O)cc2nc(NC(=O)c3cccs3)n(C/C=C/Cn3c(NC(=O)c4cccs4)nc4cc(C(N)=O)cc(O)c43)c12` [Compound 35], the EC50 was > 10000 nM.

In the case of `CCn1nccc1C(=O)Nc1nc2cc(C(N)=O)cc(O)c2n1C/C=C/Cn1c(NC(=O)c2ccnn2CC)nc2cc(C(N)=O)cc(OC)c21` [Compound 37], the EC50 is > 10000 nM.

Take `COc1cc(C(N)=O)cc2nc(NC(=O)C3CCC3)n(C/C=C/Cn3c(NC(=O)C4CCC4)nc4cc(C(N)=O)cc(O)c43)c12` [Compound 57]: the EC50 is > 10000 nM.

In the case of `CCn1nc(C)cc1C(=O)Nc1nc2cc(S(N)(=O)=O)ccc2n1C/C=C/Cn1c(NC(=O)c2cc(C)nn2C)nc2cc(C(N)=O)cc(OCCCOC3CNC3)c21` [Compound 138], the EC50 was > 5000 nM.

Regarding `CCn1nc(C)cc1C(=O)Nc1nc2cc(C(N)=O)cc(OC)c2n1C/C=C/Cn1c(NC(=O)c2cc(C(F)(F)F)nn2CC)nc2cc(C(N)=O)cc(OCCCNC)c21` [Compound 92], the EC50 was 1190 nM.

Regarding `CCn1nc(C)cc1C(=O)Nc1nc2cc(C(N)=O)cc(OC)c2n1C/C=C/Cn1c(NC(=O)c2cc(C)no2)nc2cc(C(N)=O)cc(OCCCNC)c21` [Compound 82], the EC50 was > 10000 nM.

Turning to `CCn1nc(C)cc1C(=O)Nc1nc2cc(C(N)=O)cc(OC)c2n1C/C=C/Cn1c(NC(=O)c2cc(C)nn2CC)nc2cc(C(N)=O)cc(OCCCOC3CN(C(=O)CCN4C(=O)CC(SC[C@H](N)C(=O)O)C4=O)C3)c21` (stereo partly drawn) [Compound 30, S-(1-(3-(3-(3-((5-carbamoyl-1-((E)-4-(s-carbamoyl-2-(1-ethyl-3-methyl-1H-pyrazole-5-carboxamido)-7-methoxy-1H-benzo[d]imidazol-1-yl)but-2-en-1-yl)-2-(1-ethyl-3-methyl-1H-pyrazole-5-carboxamido)-1H-benzo[d]imidazol-7-yl)oxy)propoxy)azetidin-1-yl)-3-oxopropyl)-2,5-dioxopyrrolidin-3-yl)-L-cysteine], the EC50 is 87 nM.

In the case of `COc1cc(C(N)=O)cc2nc(NC(=O)C3CCCC3)n(C/C=C/Cn3c(NC(=O)C4CCCC4)nc4cc(C(N)=O)cc(O)c43)c12` [Compound 56], the 50% effective concentration (EC50) is > 10000 nM.

`CCn1nc(C)cc1C(=O)Nc1nc2cc(C(N)=O)cc(OC)c2n1C/C=C/Cn1c(NC(=O)c2cc(C)nn2CC)nc2cc(C(N)=O)cc(OCCCN(C)C(=O)[C@H](C)NC(=O)CCN3C(=O)CC(SC[C@H](N)C(=O)O)C3=O)c21` (some centres unmarked) [Compound 74]: the EC50 was determined as 36 nM.

Take `CCn1cc(C)nc1C(=O)Nc1nc2cc(C(N)=O)cc(OCCCNC)c2n1C/C=C/Cn1c(NC(=O)c2cc(C)nn2CC)nc2cc(C(N)=O)cc(OC)c21` [Compound 86]: the EC50 stood at 2460 nM.

Turning to `CCn1nc(C)cc1C(=O)Nc1nc2cc(C(N)=O)cc(OC)c2n1C/C=C/Cn1c(NC(=O)c2cccnn2)nc2cc(C(N)=O)cc(OCCCNC)c21` [Compound 79], the EC50 was > 10000 nM.

On to `COc1cc(C(N)=O)cc2nc(NC(=O)c3cc(C)n[nH]3)n(C/C=C/Cn3c(NC(=O)c4cc(C)n[nH]4)nc4cc(C(N)=O)cc(O)c43)c12` [Compound 55], for which the EC50 is > 10000 nM.

For the compound `CCn1nc(C)cc1C(=O)Nc1nc2cc(C(N)=O)cc(OC)c2n1C/C=C/Cn1c(NC(=O)c2cc(C)nn2C)nc2cc(C(N)=O)cc(OCCC3CNC3)c21` [Compound 140, (E)-7-(2-(azetidin-3-yl)ethoxy)-1-(4-(5-carbamoyl-2-(1-ethyl-3-methyl-1H-pyrazole-5-carboxamido)-7-methoxy-1H-benzo[d]imidazol-1-yl)but-2-en-1-yl)-2-(1,3-dimethyl-1H-pyrazole-5-carboxamido)-1H-benzo[d]imidazole-5-carboxamide], the EC50 stood at 1790 nM.

For the compound `CCn1nc(C)cc1C(=O)Nc1nc2cc(C(N)=O)cc(OC)c2n1C/C=C/Cn1c(NC(=O)c2cc(C)nn2CC)nc2cc(C(N)=O)cc(OCCC3CNC3)c21` [Compound 26f], the EC50 came out at 69 nM.

Turning to `COc1cc(C(N)=O)cc2nc(NC(=O)c3cc(C)nn3C)n(C/C=C/Cn3c(NC(=O)c4cc(C)nn4C)nc4cc(C(N)=O)cc(O)c43)c12` [Compound 54], the EC50 is > 10000 nM.

Regarding `CCn1nc(C)cc1C(=O)Nc1nc2cc(S(N)(=O)=O)ccc2n1C/C=C/Cn1c(NC(=O)c2cc(C)nn2CC)nc2cc(C(N)=O)cc(OCCCOC3CNC3)c21` [Compound 137, (E)-7-(3-(azetidin-3-yloxy)propoxy)-2-(1-ethyl-3-methyl-1H-pyrazole-5-carboxamido)-1-(4-(2-(1-ethyl-3-methyl-1H-pyrazole-5-carboxamido)-5-sulfamoyl-1H-benzo[d]imidazol-1-yl)but-2-en-1-yl)-1H-benzo[d]imidazole-5-carboxamide], the EC50 was 1680 nM.

With `COc1cc(C(N)=O)cc2nc(NC(=O)C(C)n3cc(Cl)cn3)n(C/C=C/Cn3c(NC(=O)C(C)n4cc(Cl)cn4)nc4cc(C(N)=O)cc(O)c43)c12` (centres unmarked) [Compound 49], the EC50 is > 10000 nM.

Consider `CCc1oc(C)cc1C(=O)Nc1nc2cc(C(N)=O)cc(OCCCNC)c2n1C/C=C/Cn1c(NC(=O)c2cc(C)nn2CC)nc2cc(C(N)=O)cc(OC)c21` [Compound 89], for which the EC50 was 1320 nM.
